Tests used:
[1] = biological target: STAT3 Ser727 and Y705 motifs (Homo sapiens, UniProt P40763); conditions: literature; cited from earlier work
RORgammaT = RORgammaT expression by RT-PCR in allostimulated CD4+ T-cells; type: cell-based, human; conditions: S3I-201 alone, 5 days
Experimental: To optimize the detection of RORgammaT expression, CD4+ T-cells were isolated by magnetic bead negative selection (Miltenyi Biotec, Auburn, Calif. USA). […] (2011) Blood 118:5330-9; Betts, B C, et al. (2013) J Leukoc Biol. 2014 95(2):205-13; Betts, B C, et al. (2011) Blood 118:5340-3]. […] After the 5 day culture, the T-cells were harvested. Total RNA was extracted using TRIZOL (Life Technologies) according to manufacturer instructions. […] RT-PCR was carried out on an ABI 7900 instrument (Applied Biosystems) and performed [Ratajewski, M, et al. (2012) J Immunol 189:3034-42] with some modification using SYBR® Green PCR Master Mix (Life Technologies) as follows: 10 minutes at 95° C. and then 45 cycles each at 95° C. for 15 seconds, 59° C. for 45 seconds, and 72° C. for 10 seconds. The following primers were used: RORgammaT forward [NT] ID NO:7) and reverse […] NO:8); GAPDH forward [NT] ID NO:9) and reverse [NT] ID NO:10). PCR product purity was assessed by dissociation curves. The differences in gene expression were calculated by 2-ΔΔCt in triplicate. Data were normalized to GAPDH expression.

[2] = system: allostimulated T-cell proliferation; test: Primary 5-day alloMLR T-cell proliferation; type: cell-based, human
Excerpt: Bulk donor T-cells were allostimulated with cytokine-matured, allogeneic moDCs at a DC:T-cell ratio of 1:30 as previously described (Florida Blood Services) [Betts, B C, et al. (2011) Blood 118:5330-9; Betts, B C, et al. […] Betts, B C, et al. (2011) Blood 118:5340-3]. […] Lower doses of each drug were used in these experiments to mimic expected physiologic concentrations [Siddiquee, K, et al. (2007) Proceedings of the National Academy of Sciences of the United States of America 104:7391-6; Zeiser, R, et al. (2008) Blood 111:453-62], and to better detect potential synergistic activity with the combination of rapamycin and S3I-201. After 5 days of culture at […]-cell proliferation was measured by a colorimetric assay per the manufacturer's instructions (CellTiter 96 Aqueous One Solution Cell Proliferation Assay [MTS]; Promega, Madison, Wis. USA) [Betts, B C, et al. (2011) Blood 118:5330-9; Betts, B C, et al. […] Betts, B C, et al. (2011) Blood 118:5340-3]. Absorbance/optical density (OD) was analyzed at 490 nm. Secondary alloMLR: […] Following priming, the T-cells were then rested and re-cultured with fresh first-party moDCs (DC:T-cell ratio of 1:30). […] After 3 days, T-cell proliferation was measured by a colorimetric assay as described (Promega). T-cells alone and PHA-stimulated T-cells served as negative and positive controls, respectively, for both the primary and secondary alloMLRs.

STAT5 = STAT5 phosphorylation in CD4+ T cells of 5 day allo-MLRs without exogenous cytokine; type: cell-based, human
Experimental: (§1) No exogenous cytokine was added. DC-allosensitized T cells were harvested on day 5. […] The ratio of CD4^+, pSTAT5^Bright to CD4^+, pSTAT3^+ T cells was calculated by percentage of phosphorylation.

T cells = test: T-cell viability by Live/Dead staining in treated allo-MLRs; type: cell-based, human
Experimental: Fluorochrome-conjugated mouse anti-human mAbs included anti-CD3, -CD4, -CD8, -CD25, -CD45RO, -CD107a, -CD127, -Foxp3, -pSTAT3/pY705, -pSTAT5/pY694, -IFN-, and -IL-17A (BD Biosciences, San Jose, Calif. USA; eBioscience; San Diego, Calif., USA; Invitrogen; Carlsbad, Calif., USA). Viability was assessed by Live/Dead staining (Invitrogen). Live events were acquired on FACSCalibur or LSRII (BD Biosciences) flow cytometers (FlowJo software, ver. 7.6.4; TreeStar, Ashland, Oreg., USA). Gates were defined by appropriate isotype controls. Naive T-cell sorting was performed on the FACSVantageDiVa (BD Biosciences). Where indicated, CD4^+ T cells were purified by magnetic-bead negative selection (Miltenyi Biotec, Auburn, Calif., USA).

CD8+ T cells = test: Evaluation of CD8 CTL capacity (CD107a, IFN-γ); type: cell-based, human; conditions: S3I-201 50 or 100 μM, day 5
Experimental: The naive CD8^+ T cells were purified by live cell sorting (CD4^− and CD45RO/CD25^−) and were stimulated with allogeneic moDCs (DC:T cell ratio of 1:30), with S3I-201 (50 or 100 μM) or DMSO added once on day 0. On day 5, the allosensitized CD8 T cells were harvested and stimulated with PMA/ionomycin in the presence of Golgi Stop and anti-CD107a, followed by surface CD8 and intracellular IFN-γ staining.

STAT3 = biological target: T1, STAT3 (Homo sapiens, UniProt P40763); test: STAT3 phosphorylation in CD4+ T cells of 5 day allo-MLRs without exogenous cytokine; type: cell-based; conditions: S3I-201 50 or 100 μM, 5 day allo-MLR
T1 construct: endogenous in cells; host or cells: primary human T cells from healthy-donor PBMC, allostimulated by monocyte-derived dendritic cells
Experimental: as §1

S6 ribosomal protein = test: Akt-mTOR-S6 signaling in IL-2-stimulated donor T-cells; type: cell-based, human; conditions: S3I-201 50 uM, 4 hours, IL-2 pulse
Experimental: T-cells were serum-starved in RPMI treated with DMSO diluent control, rapamycin 100 ng/ml (EMD Millipore, Billerica, Mass. USA), or STAT3 inhibitor S3I-201 50 uM (H. Lee Moffitt Cancer Center, Drug Discovery Core) for 4 hours. For the STAT3 experiments, the T-cells were first DC-allostimulated (DC:T-cell ratio of 1:30) for 3 days to optimize surface expression of IL-6 receptor alpha and STAT3 signaling among healthy volunteers. The T-cells were then cytokine-pulsed for 15 minutes with either IL-2 (R&D Systems) to activate the Akt-mTOR-S6 pathway, or IL-6 to stimulate STAT3 phosphorylation. The cells were then fixed and permeabilized as described, and then stained for CD3, CD4 (STAT3 experiments), phosphorylated STAT3 Y705, and phosphorylated S6.

[3] = S3I-201 50 or 100 μM, 5 day allo-MLR

Sequence of STAT3 Ser727 and Y705 motifs (P40763 whole entry): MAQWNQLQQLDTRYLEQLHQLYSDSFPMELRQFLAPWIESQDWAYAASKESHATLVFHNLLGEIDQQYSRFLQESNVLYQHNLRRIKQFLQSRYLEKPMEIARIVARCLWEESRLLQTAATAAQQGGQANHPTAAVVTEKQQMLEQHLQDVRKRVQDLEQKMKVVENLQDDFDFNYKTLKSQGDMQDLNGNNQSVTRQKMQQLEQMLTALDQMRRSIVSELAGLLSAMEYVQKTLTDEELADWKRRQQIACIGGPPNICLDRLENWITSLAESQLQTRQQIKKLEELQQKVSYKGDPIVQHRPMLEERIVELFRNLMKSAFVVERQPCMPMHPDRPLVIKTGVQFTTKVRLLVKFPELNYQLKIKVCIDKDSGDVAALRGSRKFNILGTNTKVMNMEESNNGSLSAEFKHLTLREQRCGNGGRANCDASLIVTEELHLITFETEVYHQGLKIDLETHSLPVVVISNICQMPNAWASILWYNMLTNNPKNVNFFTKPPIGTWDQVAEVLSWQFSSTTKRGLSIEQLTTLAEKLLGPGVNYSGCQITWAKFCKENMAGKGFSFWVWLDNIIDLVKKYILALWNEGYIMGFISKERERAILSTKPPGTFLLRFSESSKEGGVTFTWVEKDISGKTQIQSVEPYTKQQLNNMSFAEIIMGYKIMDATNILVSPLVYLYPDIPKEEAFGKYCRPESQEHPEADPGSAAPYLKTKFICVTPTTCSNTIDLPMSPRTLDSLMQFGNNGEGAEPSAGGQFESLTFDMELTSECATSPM
T1 sequence (P40763 whole entry): as above

Question: What does the source list for Cc1ccc(S(=O)(=O)OCC(=O)Nc2ccc(C(=O)O)c(O)c2)cc1 [S3I-201]?
Answer: phosphorylation of the STAT3 Ser727 motif [1]: much less; phosphorylation of the STAT3 Y705 motif [1]: predominantly inhibits; RORgammaT expression compared with DMSO (RORgammaT): significant suppression; allostimulated T-cell proliferation ([2]; S3I-201 50 uM single agent): significantly reduced; alloreactive T-cell proliferation ([2]; S3I-201 below 50 μM single agent): no effect; CD4+, pSTAT5Bright population (STAT5; S3I-201 100 μM): trend in reduced STAT5 phosphorylation; STAT5 activation in response to DC allostimuli (STAT5; [3]): preserved; ratio of CD4+, pSTAT5Bright to CD4+, pSTAT3+ T cells (STAT5; [3]): robust, dose-dependent polarization; CD4+, pSTAT5Bright population (STAT5; S3I-201 vs DMSO, 5 day allo-MLR): maintained; T-cell viability (T cells; S3I-201 50 μM): preserved; T-cell viability (viability staining) (T cells; S3I-201 100 μM): toxicity; CTL potential vs DMSO control (CD8+ T cells): not significantly different; cytolytic potential by CD107a expression and intracellular IFN-γ production (CD8+ T cells): intact cytolytic potential; STAT3 phosphorylation in CD4+ alloresponders (STAT3): maintained on-target suppression; S6 activation (S6 ribosomal protein): modestly reduced

From US11406707B2, “STAT3 phosphorylation during graft-versus-host disease” (H. LEE MOFFITT CANCER CENTER AND RESEARCH INSTITUTE, INC., priority 2014, dated 2022)
